Values after ≈ are worked out from the molar mass of the structure shown.
Key:
VZV strain Ellen = test: VZV Antiviral (ELISA) assay; format: cell-based; settings: for IC50 (ug/ml) VZV / % inhibition 10 ug/ml VZV: VZV strain Ellen in HFF cells; for % inhibition 10 ug/ml VZV: at 10 ug/ml; for IC50: Human alphaherpesvirus 3, VZV strain Ellen in HFF cells, read-out: IC50 (ug/ml) VZV; for inhibition at 10 µg/mL: Human alphaherpesvirus 3, read-out: % inhibition 10 ug/ml VZV, at 10 ug/ml, VZV strain Ellen in HFF cells
Method in brief: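 Antiviral IC50 is derived by comparing fluorescence with and without compound after a three-day culture of VZV-infected plus uninfected foreskin fibroblasts. Replication is quantified by ELISA against glycoprotein II, using a β-galactosidase secondary and methyl umbelliferyl-β-D-galactoside.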

[1] = test system: HCMV recombinant mutant virus (RV145); test: HCMV microtiter plate assay (beta-glucuronidase reporter); format: cell-based, Human Cytomegalovirus; settings: for IC50 (ug/ml) HCMV: HCMV in human foreskin fibroblasts; for IC50: Human betaherpesvirus 5, Fibroblast, read-out: IC50 (ug/ml) HCMV
Method in brief: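 Human foreskin fibroblasts were infected with RV145 in the presence of inhibitor. β-glucuronidase under a viral promoter served as the replication marker. At 96 h post-infection, lysates in pH 7.0 phosphate with Triton X-100/sarkosyl were assayed colorimetrically or fluorometrically, and IC50 was estimated from varying inhibitor amounts.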

HSV-1 = test: HSV Antiviral (ELISA) assay; format: cell-based; settings: for IC50 (ug/ml) HSV: HSV-1 in Vero cells; for IC50: Human alphaherpesvirus 1, HSV-1 in Vero cells, read-out: IC50 (ug/ml) HSV
Method in brief: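 Vero cells in DMEM/2% FBS pretreated with compound 30 min before HSV-1 infection (MOI 0.006), then ~24 h at 37 °C. Viral gD detected by ELISA with β-galactosidase secondary and 4-methylumbelliferyl-galactoside (ex 365/em 450 nm); IC50 from fluorescence versus untreated infected cells.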

Row | SMILES | IC50 (ug/ml) VZV (VZV strain Ellen) [µg/mL] | % inhibition 10 ug/ml VZV (VZV strain Ellen) [%] | IC50 (ug/ml) HCMV [1] [µg/mL] | IC50 (ug/ml) HSV (HSV-1) [µg/mL] | IC50 (VZV strain Ellen) [µg/mL] | IC50 [1] [µg/mL] | IC50 (HSV-1) [µg/mL] | inhibition at 10 µg/mL (VZV strain Ellen) [%]
1 | COc1cc(OC)c(NC(=S)Nc2ccc(NC(=O)c3snnc3-c3ccccc3)cc2)cc1Cl [Example 264] | >10 | 28 | >10 | >10 | – | – | – | –
2 | CCCN(CCC)CC(=O)Nc1ccc(NC(=S)Nc2ccc(NC(=O)c3ccco3)cc2)cc1Cl [Example 411] | 2 (≈ 3.79 µM) | 99 | 0.024 (≈ 0.0454 µM) | 8 (≈ 15.1 µM) | – | – | – | –
3 | CC(O)c1cccc(NC(=S)Nc2ccc(NC(=O)c3csnn3)cc2)c1 (stereo not drawn) [Example 464] | >10 | 25 | 0.15 (≈ 0.375 µM) | >10 | – | – | – | –
4 | CC(C)c1nc(C(=O)Nc2ccc(NC(=S)Nc3cc(Cl)cc(Cl)c3)cc2)cs1 [Example 1131, 2-Isopropyl-thiazole-4-carboxylic acid {4-[3-(3,5-dichloro-phenyl)-thioureido]-phenyl}-amide] | – | – | – | – | 9 (≈ 19.3 µM) | 1.5 (≈ 3.22 µM) | 2.2 (≈ 4.73 µM) | –
5 | O=C(Nc1ccc(NC(=S)Nc2ccc(NC(=O)c3ccco3)cc2)cc1Cl)OCCN1CCCCC1 [Example 439] | >10 | 46 | 0.5 (≈ 0.922 µM) | 9 (≈ 16.6 µM) | – | – | – | –
6 | COc1cc(OC)c(NC(=S)Nc2ccc(NC(=O)c3nnsc3-c3ccoc3)cc2)cc1Cl [Example 280] | >10 | – | >10 | >10 | – | – | – | –
7 | O=C(Nc1ccc(NC(=S)NCCc2ccc(Cl)c(Cl)c2)cc1)c1csnn1 [Example 645] | 10 (≈ 22.1 µM) | – | 0.003 (≈ 0.00663 µM) | >10 | – | – | – | –
8 | CC(NC(=S)Nc1ccc(NC(=O)c2ccco2)cc1)c1ccccc1 (stereo not drawn) [Example 590] | 1 (≈ 2.74 µM) | – | 0.12 (≈ 0.328 µM) | >10 | – | – | – | –
9 | O=C(Nc1ccc(NC(=S)Nc2ccccc2)cc1)c1ccco1 [Example 911, Furan-2-carboxylic acid [4-(3-phenyl-thioureido)-phenyl]-amide] | – | – | – | – | > 10 | 0.3 (≈ 0.889 µM) | > 10 | 25
10 | Nc1c(Cl)cccc1NC(=S)Nc1ccc(NC(=O)c2ccco2)cc1 [Example 446] | >10 | – | 0.7 (≈ 1.81 µM) | 10 (≈ 25.8 µM) | – | – | – | –
11 | O=C(Nc1ccc(NC(=S)Nc2cccc(S(=O)(=O)CCO)c2)cc1)c1ccccc1F [Example 1019, 2-Fluoro-N-(4-{3-[3-(2-hydroxy-ethanesulfonyl)-phenyl]-thioureido} -phenyl)-benzamide] | – | – | – | – | – | 1.5 (≈ 3.17 µM) | > 10 | 2
12 | COc1cc(NC(=S)Nc2ccc(NC(=O)c3ccco3)cc2)cc(OC)c1 [Example 467] | >15 | 93 | 0.12 (≈ 0.302 µM) | >10 | – | – | – | –
13 | CN(C)c1cc(Cl)cc(NC(=S)Nc2ccc(NC(=O)c3ccco3)cc2)c1 [Example 524] | 2 (≈ 4.82 µM) | 95 | 0.055 (≈ 0.133 µM) | 4 (≈ 9.64 µM) | – | – | – | –
14 | COc1cc(OC)c(NC(=S)Nc2ccc(NC(=O)c3nnsc3-c3ccccc3)cc2)cc1Cl [Example 281] | >10 | 31 | >10 | >10 | – | – | – | –
15 | Cc1ccc(NC(=S)Nc2ccc(NC(=O)c3csnn3)cc2)cc1Cl [Example 230] | >10 | – | 0.015 (≈ 0.0371 µM) | >10 | – | – | – | –
16 | O=C(Nc1ccc(NC(=S)NNc2cccc(Cl)c2)cc1)c1ccco1 [Example 528] | 5 (≈ 12.9 µM) | 107 | 0.25 (≈ 0.646 µM) | 3.2 (≈ 8.27 µM) | – | – | – | –
17 | COc1ccc(NC(=S)Nc2ccc(NC(=O)c3csnn3)cc2)cc1Cl [Example 888, [1,2,3]Thiadiazole-4-carboxylic acid {4-[3-(3-chloro-4-methoxy-phenyl)-thioureido]-phenyl}-amide] | – | – | – | – | > 10 | 0.06 (≈ 0.143 µM) | 6 (≈ 14.3 µM) | 31
18 | O=C(Nc1ccc(NC(=S)Nc2ccc3[nH]nnc3c2)cc1)c1ccco1 [Example 526] | 2.5 (≈ 6.61 µM) | 22 | 3 (≈ 7.93 µM) | >10 | – | – | – | –

Row | SMILES | IC50 (ug/ml) VZV (VZV strain Ellen) [µg/mL] | % inhibition 10 ug/ml VZV (VZV strain Ellen) [%] | IC50 (ug/ml) HCMV [1] [µg/mL] | IC50 (ug/ml) HSV (HSV-1) [µg/mL] | IC50 (VZV strain Ellen) [µg/mL] | IC50 [1] [µg/mL] | IC50 (HSV-1) [µg/mL] | inhibition at 10 µg/mL (VZV strain Ellen) [%]
19 | O=C(Nc1ccc(NC(=S)Nc2ccc3[nH]ncc3c2)cc1)c1ccco1 [Example 481] | >10 | 32 | 0.5 (≈ 1.32 µM) | >10 | – | – | – | –
20 | Cc1nc2cc(NC(=S)Nc3ccc(NC(=O)c4ccco4)cc3)ccc2[nH]1 [Example 495] | >10 | 27 | 3 (≈ 7.66 µM) | >10 | – | – | – | –
21 | O=C(Nc1ccc(NC(=S)Nc2ccc(C(F)(F)F)c(Cl)c2)cc1)c1csnn1 [Example 960, [1,2,3]Thiadiazole-4-carboxylic acid {4-[3-(3-chloro-4-trifluoromethyl-phenyl)-thioureido]-phenyl}-amide] | – | – | – | – | > 10 | 0.03 (≈ 0.0655 µM) | > 10 | 58
22 | O=C(Nc1ccc(NC(=S)Nc2cccc(Cl)c2)cc1)c1ccco1 [Example 993, Furan-2-carboxylic acid {4-[3-(3-chloro-phenyl)-thioureido]-phenyl}-amide] | – | – | – | – | > 10 | 0.013 (≈ 0.035 µM) | > 10 | –
23 | Cc1nc(C(=O)Nc2ccc(NC(=S)Nc3cc(C(F)(F)F)cc(C(F)(F)F)c3)cc2)cs1 [Example 1140, 2-Methyl-thiazole-4-carboxylic acid {4-[3-(3,5-bis-trifluoromethyl-phenyl)-thioureido]-phenyl}-amide] | – | – | – | – | 4 (≈ 7.93 µM) | 1.6 (≈ 3.17 µM) | 3.5 (≈ 6.94 µM) | –
24 | COc1cc(OC)c(NC(=S)Nc2ccc(NC(=O)c3sccc3Br)cc2)cc1Cl [Example 175] | >10 | 24 | >10 | 2 (≈ 3.8 µM) | – | – | – | –
25 | CN(c1ccc(NC(=S)Nc2ccc(NC(=O)c3csnn3)cc2)cc1Cl)C1CCN(Cc2ccccc2)C1 (stereo not drawn) [Example 905, [1,2,3]Thiadiazole-4-carboxylic acid [4-(3-{4-[(1-benzyl-pyrrolidin-3-yl)-methyl-amino]-3-chloro-phenyl}-thioureido)-phenyl]-amide] | – | – | – | – | 2 (≈ 3.46 µM) | 0.3 (≈ 0.519 µM) | 4 (≈ 6.92 µM) | 82
26 | O=C(Nc1ccc(NC(=S)Nc2cc(Cl)c(Cl)c(Cl)c2)cc1)c1csnn1 [Example 989, [1,2,3]Thiadiazole-4-carboxylic acid {4-[3-(3,4,5-trichloro-phenyl)-thioureido]-phenyl}-amide] | – | – | – | – | > 10 | 0.016 (≈ 0.0349 µM) | > 10 | 21
27 | O=C(Nc1ccc(NC(=S)Nc2cccc(C(F)(F)F)c2)cc1)c1ccco1 [Example 431] | >10 | – | 0.06 (≈ 0.148 µM) | >10 | – | – | – | –
28 | CS(=O)(=O)Nc1ccc(NC(=S)Nc2ccc(NC(=O)c3ccco3)cc2)cc1Cl [Example 371] | >10 | 45 | >10 | >10 | – | – | – | –
29 | Cc1ccc(CCNC(=S)Nc2ccc(NC(=O)c3csnn3)cc2)cc1 [Example 638] | >10 | – | 0.01 (≈ 0.0252 µM) | >10 | – | – | – | –
30 | CN1CCC(N(C)c2ccc(NC(=S)Nc3ccc(NC(=O)c4csnn4)cc3)cc2Cl)C1 (stereo not drawn) [Example 341] | >10 | 50 | 0.15 (≈ 0.299 µM) | 2 (≈ 3.98 µM) | – | – | – | –
31 | O=C(Nc1ccc(NC(=S)Nc2cc(N3CCCC3)cc(C(F)(F)F)c2)cc1)c1csnn1 [Example 560] | >10 | – | 0.008 (≈ 0.0162 µM) | >10 | – | – | – | –
32 | Cc1ccc(NC(=S)Nc2ccc(NC(=O)c3ccccn3)cc2)cc1Cl [Example 236] | >10 | 40 | 0.7 (≈ 1.76 µM) | >10 | – | – | – | –
33 | O=C(Nc1ccc(NC(=S)NCc2ccccc2)cc1)c1ccco1 [Example 544] | >10 | – | 0.02 (≈ 0.0569 µM) | >10 | – | – | – | –
34 | O=C(Nc1ccc(NC(=S)Nc2ccc(-c3cc[nH]n3)c(Cl)c2)cc1)c1csnn1 [Example 991, [1,2,3]Thiadiazole-4-carboxylic acid (4-{3-[3-chloro-4-(1H-pyrazol-3-yl)-phenyl]-thioureido}-phenyl)-amide] | – | – | – | – | > 10 | 0.022 (≈ 0.0483 µM) | > 10 | 3
35 | Nc1c(Cl)cc(C(F)(F)F)cc1NC(=S)Nc1ccc(NC(=O)c2csnn2)cc1 [Example 534] | >10 | – | 0.05 (≈ 0.106 µM) | 7 (≈ 14.8 µM) | – | – | – | –

Source: patent US6426355B1, “Heterocyclic carboxamide-containing thiourea inhibitors of herpes viruses containing phenylenediamine group” (American Home Products, priority 1998, dated 2002)
